From patent US20240365781A1, “SYNERGISTICALLY EFFECTIVE HERBICIDE COMPOSITION COMPRISING PELARGONIC ACID AND FLAZASULFURON” (Belchim Crop Protection NV, priority 2017, published 2024)

Key:
Assay in all cases: post-emergence field trial under rows of vines, 150-200 L water/ha (Examples 6-9)
Type in all cases: in vivo
Convolvulus arvensis = details: flazasulfuron 40 g/ha
Chenopodium album = details: flazasulfuron 40 g/ha
Stellaria media = details: flazasulfuron 40 g/ha
Digitaria sanguinalis = details: flazasulfuron 40 g/ha
Veronica persicae = details: flazasulfuron 40 g/ha
Epilobium tetragonum = details: flazasulfuron 40 g/ha
Oxalis latifolia = details: flazasulfuron 40 g/ha
Senecio vulgaris = details: flazasulfuron 40 g/ha
Geranium molle = details: 15 d, flazasulfuron 40 g/ha
Bromus oxyodon = details: flazasulfuron 40 g/ha
Sonchus oleracea = details: flazasulfuron 40 g/ha
[1] = 14 d, pelargonic acid 5440 g/ha
[2] = 14 d, pelargonic acid 6800 g/ha
[3] = 14 d, pelargonic acid 8160 g/ha
[4] = 14 d, pelargonic acid 10880 g/ha
[5] = 28 d, pelargonic acid 6800 g/ha
[6] = 28 d, pelargonic acid 8160 g/ha
[7] = 28 d, pelargonic acid 10880 g/ha
[8] = 7 d, pelargonic acid 10880 g/ha
[9] = 31 d, pelargonic acid 5440 g/ha
[10] = 31 d, pelargonic acid 8160 g/ha
[11] = 31 d, pelargonic acid 10880 g/ha
[12] = 58 d, pelargonic acid 5440 g/ha
[13] = 58 d, pelargonic acid 8160 g/ha
[14] = 58 d, pelargonic acid 10880 g/ha
[15] = 28 d, pelargonic acid 5440 g/ha
[16] = 27 d, pelargonic acid 5440 g/ha
[17] = 27 d, pelargonic acid 6800 g/ha
[18] = 27 d, pelargonic acid 8160 g/ha
[19] = 27 d, pelargonic acid 10880 g/ha
[20] = 56 d, pelargonic acid 5440 g/ha
[21] = 56 d, pelargonic acid 6800 g/ha
[22] = 56 d, pelargonic acid 8160 g/ha
[23] = 56 d, pelargonic acid 10880 g/ha

## COc1cc(OC)nc(NC(=O)NS(=O)(=O)c2ncccc2C(F)(F)F)n1 [Flazasulfuron, 1-(4,6-dimethoxypyrimidin-2-yl)-3-(3-trifluoromethyl-2-pyridylsulfonyl)urea]
Convolvulus arvensis; 7 d, pelargonic acid 5440 g/ha
  herbicidal effect: 73%
Convolvulus arvensis; 7 d, pelargonic acid 6800 g/ha
  herbicidal effect: 73%
Convolvulus arvensis; 7 d, pelargonic acid 8160 g/ha
  herbicidal effect: 73%
Convolvulus arvensis; [1]
  herbicidal effect: 88%
Convolvulus arvensis; [2]
  herbicidal effect: 88%
Convolvulus arvensis; [3]
  herbicidal effect: 88%
Convolvulus arvensis; [4]
  herbicidal effect: 88%
Convolvulus arvensis; [5]
  herbicidal effect: 74%
Convolvulus arvensis; [6]
  herbicidal effect: 74%
Convolvulus arvensis; [7]
  herbicidal effect: 74%
Convolvulus arvensis; 65 d, pelargonic acid 5440 g/ha
  herbicidal effect: 0%
Convolvulus arvensis; 65 d, pelargonic acid 6800 g/ha
  herbicidal effect: 0%
Convolvulus arvensis; 65 d, pelargonic acid 8160 g/ha
  herbicidal effect: 0%
Convolvulus arvensis; 65 d, pelargonic acid 10880 g/ha
  herbicidal effect: 0%
Chenopodium album; 7 d, pelargonic acid 5440 g/ha
  herbicidal effect: 23%
Chenopodium album; [8]
  herbicidal effect: 23%
Chenopodium album; [1]
  herbicidal effect: 25%
Chenopodium album; [4]
  herbicidal effect: 25%
Chenopodium album; [9]
  herbicidal effect: 53%
Chenopodium album; [10]
  herbicidal effect: 53%
Chenopodium album; [11]
  herbicidal effect: 53%
Chenopodium album; [12]
  herbicidal effect: 65%
Chenopodium album; 58 d, pelargonic acid 6800 g/ha
  herbicidal effect: 65%
Chenopodium album; [13]
  herbicidal effect: 65%
Chenopodium album; [14]
  herbicidal effect: 65%
Stellaria media; 7 d, pelargonic acid 8160 g/ha
  herbicidal effect: 30%
Stellaria media; [8]
  herbicidal effect: 30%
Stellaria media; [1]
  herbicidal effect: 54%
Stellaria media; [2]
  herbicidal effect: 54%
Stellaria media; [3]
  herbicidal effect: 54%
Stellaria media; [4]
  herbicidal effect: 54%
Stellaria media; [15]
  herbicidal effect: 86%
Stellaria media; [5]
  herbicidal effect: 86%
Stellaria media; [6]
  herbicidal effect: 86%
Stellaria media; [7]
  herbicidal effect: 86%
Digitaria sanguinalis; 7 d, pelargonic acid 5440 g/ha
  herbicidal effect: 51%
Digitaria sanguinalis; 7 d, pelargonic acid 6800 g/ha
  herbicidal effect: 51%
Digitaria sanguinalis; 7 d, pelargonic acid 8160 g/ha
  herbicidal effect: 51%
Digitaria sanguinalis; [8]
  herbicidal effect: 51%
Digitaria sanguinalis; [1]
  herbicidal effect: 80%
Digitaria sanguinalis; [2]
  herbicidal effect: 80%
Digitaria sanguinalis; [3]
  herbicidal effect: 80%
Digitaria sanguinalis; [4]
  herbicidal effect: 80%
Digitaria sanguinalis; [16]
  herbicidal effect: 73%
Digitaria sanguinalis; [17]
  herbicidal effect: 73%
Digitaria sanguinalis; [18]
  herbicidal effect: 73%
Digitaria sanguinalis; [19]
  herbicidal effect: 73%
Digitaria sanguinalis; [20]
  herbicidal effect: 64%
Digitaria sanguinalis; [21]
  herbicidal effect: 64%
Digitaria sanguinalis; [22]
  herbicidal effect: 64%
Digitaria sanguinalis; [23]
  herbicidal effect: 64%
Veronica persicae; 7 d, pelargonic acid 5440 g/ha
  herbicidal effect: 43%
Veronica persicae; 7 d, pelargonic acid 6800 g/ha
  herbicidal effect: 43%
Veronica persicae; 7 d, pelargonic acid 8160 g/ha
  herbicidal effect: 43%
Veronica persicae; [8]
  herbicidal effect: 43%
Veronica persicae; [1]
  herbicidal effect: 50%
Veronica persicae; [2]
  herbicidal effect: 50%
Veronica persicae; [3]
  herbicidal effect: 50%
Veronica persicae; [4]
  herbicidal effect: 50%
Veronica persicae; [16]
  herbicidal effect: 24%
Veronica persicae; [17]
  herbicidal effect: 24%
Veronica persicae; [18]
  herbicidal effect: 24%
Veronica persicae; [19]
  herbicidal effect: 24%
Veronica persicae; [20]
  herbicidal effect: 0%
Veronica persicae; [23]
  herbicidal effect: 0%
Epilobium tetragonum; 7 d, pelargonic acid 5440 g/ha
  herbicidal effect: 61%
Epilobium tetragonum; 7 d, pelargonic acid 8160 g/ha
  herbicidal effect: 61%
Epilobium tetragonum; [8]
  herbicidal effect: 61%
Epilobium tetragonum; [2]
  herbicidal effect: 96%
Epilobium tetragonum; [3]
  herbicidal effect: 96%
Epilobium tetragonum; [4]
  herbicidal effect: 96%
Epilobium tetragonum; [17]
  herbicidal effect: 96%
Epilobium tetragonum; [18]
  herbicidal effect: 96%
Epilobium tetragonum; [19]
  herbicidal effect: 96%
Epilobium tetragonum; [21]
  herbicidal effect: 96%
Epilobium tetragonum; [22]
  herbicidal effect: 96%
Epilobium tetragonum; [23]
  herbicidal effect: 96%
Oxalis latifolia; 7 d, pelargonic acid 6800 g/ha
  herbicidal effect: 29%
Oxalis latifolia; 7 d, pelargonic acid 8160 g/ha
  herbicidal effect: 29%
Oxalis latifolia; [8]
  herbicidal effect: 29%
Oxalis latifolia; [1]
  herbicidal effect: 49%
Oxalis latifolia; [2]
  herbicidal effect: 49%
Oxalis latifolia; [3]
  herbicidal effect: 49%
Oxalis latifolia; [4]
  herbicidal effect: 49%
Oxalis latifolia; [5]
  herbicidal effect: 44%
Senecio vulgaris; 7 d, pelargonic acid 5440 g/ha
  herbicidal effect: 20%
Senecio vulgaris; 7 d, pelargonic acid 6800 g/ha
  herbicidal effect: 20%
Senecio vulgaris; [1]
  herbicidal effect: 20%
Senecio vulgaris; [2]
  herbicidal effect: 20%
Senecio vulgaris; [3]
  herbicidal effect: 20%
Senecio vulgaris; [9]
  herbicidal effect: 50%
Senecio vulgaris; 31 d, pelargonic acid 6800 g/ha
  herbicidal effect: 50%
Senecio vulgaris; [10]
  herbicidal effect: 50%
Senecio vulgaris; [11]
  herbicidal effect: 50%
Senecio vulgaris; [12]
  herbicidal effect: 97%
Senecio vulgaris; [13]
  herbicidal effect: 97%
Senecio vulgaris; [14]
  herbicidal effect: 97%
Geranium molle; pelargonic acid 5440 g/ha
  herbicidal effect: 63%
Geranium molle; pelargonic acid 6800 g/ha
  herbicidal effect: 63%
Geranium molle; pelargonic acid 8160 g/ha
  herbicidal effect: 63%
Geranium molle; pelargonic acid 10880 g/ha
  herbicidal effect: 63%
Bromus oxyodon; 7 d, pelargonic acid 5440 g/ha
  herbicidal effect: 28%
Bromus oxyodon; 7 d, pelargonic acid 6800 g/ha
  herbicidal effect: 28%
Bromus oxyodon; 7 d, pelargonic acid 8160 g/ha
  herbicidal effect: 28%
Bromus oxyodon; [8]
  herbicidal effect: 28%
Bromus oxyodon; [1]
  herbicidal effect: 46%
Bromus oxyodon; [2]
  herbicidal effect: 46%
Bromus oxyodon; [3]
  herbicidal effect: 46%
Bromus oxyodon; [4]
  herbicidal effect: 46%
Bromus oxyodon; [15]
  herbicidal effect: 78%
Bromus oxyodon; [5]
  herbicidal effect: 78%
Bromus oxyodon; [6]
  herbicidal effect: 78%
Bromus oxyodon; [7]
  herbicidal effect: 78%
Sonchus oleracea; [1]
  herbicidal effect: 75%
Sonchus oleracea; [2]
  herbicidal effect: 75%
Sonchus oleracea; [3]
  herbicidal effect: 75%
Sonchus oleracea; [4]
  herbicidal effect: 75%
Sonchus oleracea; [16]
  herbicidal effect: 74%
Sonchus oleracea; [17]
  herbicidal effect: 74%
Sonchus oleracea; [18]
  herbicidal effect: 74%
Sonchus oleracea; [19]
  herbicidal effect: 74%
Sonchus oleracea; [20]
  herbicidal effect: 70%
Sonchus oleracea; [21]
  herbicidal effect: 70%
Sonchus oleracea; [22]
  herbicidal effect: 70%
Sonchus oleracea; [23]
  herbicidal effect: 70%
